Test results as given in patent US20100204150A1, “USE OF A PEPTIDE AS A THERAPEUTIC AGENT” (priority 2007, published 2010).
Where no end group is shown, it is not given here. [ ]: non-standard residue; d: D form.

How the values were obtained:
HIV-1IIIB = assay: HIV-1 antiviral assay in CEM-SS cells (MTS readout)
[1] = system: hepatitis B virus (HBV) ayw strain; assay: HBV assay in HepG2-2.2.15 cells (secreted HBV DNA, TaqMan PCR); format: cell-based; conditions: 10 micrograms per ml, six days, combination 0.95 mole peptide 1 and 1.05 mole peptide 2
Excerpt: HepG2-2.2.15 is a stable cell line containing the hepatitis B virus (HBV) ayw strain genome (ATCC Cat. No. CRL-11997). Antiviral compounds blocking any late step of viral replication such as transcription, translation, pregenome encapsidation, reverse transcription, particle assembly and release can be identified and characterized using this cell line. In this assay, an active compound will reduce the production of secreted HBV from cells, measured by utilizing real time quantitative PCR (TaqMan) assay to directly and accurately measure HBV DNA copies.
HepG2-2.2.15 cells were plated in 96-well microtiter plates. After 16-24 hours the confluent monolayer of HepG2-2.2.15 cells was washed and the medium was replaced with complete medium containing test peptides—10 micrograms per ml—in duplicate. […] Six days following the initial administration of the peptides, the cell culture supernatants was collected, treated with pronase and DNAse and then used in a real-time quantitative TaqMan PCR assay. The PCR-amplified HBV DNA was detected in real-time by monitoring increases in fluorescence signals that result from the exonucleolytic degradation of a quenched fluorescence probe molecule that hybridizes to the amplified HBV DNA. […] Antiviral activity was calculated from the reduction in HBV DNA levels (% virus control). […]

Interleukin-2 (IL-2) = assay: Th1/Th2 cytokine profiling assay: IL-2; format: cell-based, mouse; conditions: 10 micrograms per ml; Ovalbumin-restimulated murine spleen cells; 72 hours
Description: (§1) On day 50, spleens of the mice were harvested (3 weeks after last boost with Ovalbumin). Cells were cultured (2×10^5/well in triplicate) and incubated with culture medium or test peptides—10 micrograms per ml—for 30 min. […] This kit can be used to measure Interleukin-2 (IL-2), Interleukin-4 (IL-4), Interleukin-5 (IL-5), Interferon-γ (IFN-γ), and Tumor Necrosis Factor-a (TNF-a) protein levels in a single sample. The kit performance has been optimized for analysis of physiologically relevant concentrations (μg/ml levels) of specific cytokine proteins in tissue culture supernatants and serum samples.

Interferon-γ (IFN-γ) = assay: Th1/Th2 cytokine profiling assay: IFN-γ; format: cell-based, mouse; conditions: 10 micrograms per ml; Ovalbumin-restimulated murine spleen cells; 72 hours
Description: as §1

Interleukin-5 (IL-5) = assay: Th1/Th2 cytokine profiling assay: IL-5; format: cell-based, mouse; conditions: 10 micrograms per ml; Ovalbumin-restimulated murine spleen cells; 72 hours
Description: as §1

Interleukin-4 (IL-4) = assay: Th1/Th2 cytokine profiling assay: IL-4; format: cell-based, mouse; conditions: 10 micrograms per ml; Ovalbumin-restimulated murine spleen cells; 72 hours
Description: as §1

[2] = system: Tumor Necrosis Factor-a (TNF-a); assay: Th1/Th2 cytokine profiling assay: TNF-alpha; format: cell-based, mouse; conditions: 10 micrograms per ml; Ovalbumin-restimulated murine spleen cells; 72 hours
Description: as §1

[3] = system: Primary Human endothelial cells (HUVEC); assay: Endothelial cell migration assay; format: cell-based; conditions: 10 micrograms per ml, 22 hours
Description: Thereafter, designated concentration of testing peptides was added in duplicate wells.

HUVEC = assay: Endothelial tube formation assay; format: cell-based, human; conditions: 10 micrograms per ml, 20 hours
Excerpt: Positive control was vehicle only.

HCMV strain AD169 = assay: HCMV plaque formation assay in MRC-5 cells; conditions: 10 micrograms per ml, 7-10 days

Molecule	antiviral activity of positive control compounds (HIV-1) (HIV-1IIIB)	inhibition of HBV replication as compared to the virus control infection [1]	increase of the production of IL-2 (Interleukin-2 (IL-2))	increase of the production of IFN-γ (Interferon-γ (IFN-γ))	change of the production of IL-5 (Interleukin-5 (IL-5))	increase of the production of IL-4 (Interleukin-4 (IL-4))	change of the production of TNF-alpha [2]	increase of the migration of endothelial cells [3]	increase of the tube formation of human endothelial cells (HUVEC)	inhibition of HCMV plaque formation as compared to the virus control experiment (HCMV strain AD169)	decrease of the production of IFN-γ (Interferon-γ (IFN-γ))	decrease of the production of IL-5 (Interleukin-5 (IL-5))	change of the production of IL-4 (Interleukin-4 (IL-4))	inhibition of the migration of human endothelial cells [3]
Cc1cn([C@H]2C[C@H](N=[N+]=[N-])[C@@H](CO)O2)c(=O)[nH]c1=O [AZT]	expected levels of antiviral activity	–	–	–	–	–	–	–	–	–	–	–	–	–
CC(C)(C)NC(=O)[C@@H]1CN(Cc2cccnc2)CCN1C[C@@H](O)C[C@@H](Cc1ccccc1)C(=O)N[C@H]1c2ccccc2C[C@H]1O [indinavir]	expected levels of antiviral activity	–	–	–	–	–	–	–	–	–	–	–	–	–
Ac-Arg-Phe-Met-Trp-Met-Arg-NH2 (Ac-RFMWMR-NH2) [Peptide 2]	–	26.3%	56.5%	118.6%	did not significantly change	56.2%	did not significantly change	15%	4%	2.9%	–	–	–	–
HPFHL[dL]VY-OH [Peptide 1]	–	24.3%	82.1%	–	–	–	did not significantly change	–	2%	did not inhibit	43.3%	34.5%	did not significantly change	26%
